Test results: the NIST ThermoML archive (doi:10.1007/s10765-008-0535-5)

Details: Liquid, Pycnometric method

FCF [difluoromethane]
Details	mass density [kg/m3]
268.15 K, 8268 kPa	1093.5
268.15 K, 8502 kPa	1093.5
269.15 K, 9280 kPa	1093.3
269.15 K, 9512 kPa	1093.3
270.15 K, 10291 kPa	1093.2
270.15 K, 10521 kPa	1093.2
271.15 K, 11302 kPa	1093
271.15 K, 11531 kPa	1093
272.15 K, 12312 kPa	1092.9
272.15 K, 12421 kPa	1092.9
272.15 K, 12540 kPa	1092.9
273.15 K, 13321 kPa	1092.7
273.15 K, 13429 kPa	1092.8
273.15 K, 13551 kPa	1092.7
274.15 K, 14330 kPa	1092.6
274.15 K, 14438 kPa	1092.6
274.15 K, 14560 kPa	1092.6
275.15 K, 15337 kPa	1092.4
275.15 K, 15444 kPa	1092.4
275.15 K, 15568 kPa	1092.4
276.15 K, 16344 kPa	1092.3
276.15 K, 16452 kPa	1092.3
276.15 K, 16577 kPa	1092.3
277.15 K, 17350 kPa	1092.1
277.15 K, 17457 kPa	1092.1
277.15 K, 17583 kPa	1092.1
278.15 K, 18354 kPa	1092
278.15 K, 18462 kPa	1092
278.15 K, 18589 kPa	1092
279.15 K, 19358 kPa	1091.8
279.15 K, 19465 kPa	1091.8
279.15 K, 19595 kPa	1091.8
280.15 K, 20361 kPa	1091.7
280.15 K, 20468 kPa	1091.7
280.15 K, 20598 kPa	1091.7
281.15 K, 21363 kPa	1091.5
281.15 K, 21470 kPa	1091.5
281.15 K, 21601 kPa	1091.5
282.15 K, 22363 kPa	1091.4
282.15 K, 22472 kPa	1091.4
282.15 K, 22602 kPa	1091.4
283.15 K, 23363 kPa	1091.2
283.15 K, 23473 kPa	1091.2
283.15 K, 23603 kPa	1091.2
284.15 K, 24362 kPa	1091.1
284.15 K, 24472 kPa	1091.1
284.15 K, 24606 kPa	1091
285.15 K, 25359 kPa	1090.9
285.15 K, 25470 kPa	1090.9
285.15 K, 25603 kPa	1090.9
286.15 K, 26356 kPa	1090.8
286.15 K, 26466 kPa	1090.8
286.15 K, 26598 kPa	1090.7
287.15 K, 27351 kPa	1090.6
287.15 K, 27461 kPa	1090.6
287.15 K, 27594 kPa	1090.6
288.15 K, 28345 kPa	1090.4
288.15 K, 28454 kPa	1090.4
288.15 K, 28588 kPa	1090.4
289.15 K, 5774 kPa	1015.9
289.15 K, 5835 kPa	1015.9
289.15 K, 29338 kPa	1090.3
289.15 K, 29446 kPa	1090.3
289.15 K, 29581 kPa	1090.3
290.15 K, 6570 kPa	1015.8
290.15 K, 6631 kPa	1015.8
291.15 K, 7365 kPa	1015.7
291.15 K, 7428 kPa	1015.7
292.15 K, 8161 kPa	1015.6
292.15 K, 8224 kPa	1015.5
293.15 K, 8956 kPa	1015.5
293.15 K, 9019 kPa	1015.4
294.15 K, 9752 kPa	1015.3
294.15 K, 9815 kPa	1015.3
295.15 K, 10546 kPa	1015.2
295.15 K, 10610 kPa	1015.2
296.15 K, 11341 kPa	1015.1
296.15 K, 11405 kPa	1015.1
297.15 K, 12135 kPa	1015
297.15 K, 12199 kPa	1014.9
298.15 K, 12929 kPa	1014.9
298.15 K, 12993 kPa	1014.8
299.15 K, 13723 kPa	1014.7
299.15 K, 13787 kPa	1014.7
300.15 K, 14517 kPa	1014.6
300.15 K, 14581 kPa	1014.6
301.15 K, 15309 kPa	1014.5
301.15 K, 15374 kPa	1014.4
302.15 K, 16102 kPa	1014.4
302.15 K, 16167 kPa	1014.3
303.15 K, 16894 kPa	1014.2
303.15 K, 16960 kPa	1014.2
304.15 K, 17685 kPa	1014.1
304.15 K, 17752 kPa	1014.1
305.15 K, 18476 kPa	1014
305.15 K, 18543 kPa	1014
306.15 K, 19267 kPa	1013.9
306.15 K, 19335 kPa	1013.8
307.15 K, 20125 kPa	1013.7
308.15 K, 20848 kPa	1013.6
308.15 K, 20915 kPa	1013.6
309.15 K, 21639 kPa	1013.5
309.15 K, 21704 kPa	1013.4
310.15 K, 22429 kPa	1013.4
310.15 K, 22492 kPa	1013.3
311.15 K, 23217 kPa	1013.3
311.15 K, 23281 kPa	1013.2
312.15 K, 24005 kPa	1013.2
312.15 K, 24068 kPa	1013.1
313.15 K, 24793 kPa	1013
313.15 K, 24855 kPa	1012.9
314.15 K, 25579 kPa	1012.9
314.15 K, 25641 kPa	1012.8
315.15 K, 26364 kPa	1012.8
315.15 K, 26427 kPa	1012.7
316.15 K, 27149 kPa	1012.7
316.15 K, 27212 kPa	1012.6
317.15 K, 27934 kPa	1012.5
317.15 K, 27996 kPa	1012.4
318.15 K, 28719 kPa	1012.4
318.15 K, 28779 kPa	1012.3
